Assay results taken from article PMC8405639, “2-Carba-lysophosphatidic acid is a novel β-lysophosphatidic acid analogue with high potential for lysophosphatidic acid receptor activation and autotaxin inhibition” (Scientific Reports, 2021).

What was measured:
[1] = system: extracellular signal-regulated kinase (ERK) phosphorylation; experiment: Western blot analysis of phosphorylated ERK in HeLa cells; format: cell-based; details: HeLa cells preincubated with 10 µM Ki16425 for 30 min
Procedure: Figure 3 Effects of 2-carba-lysophosphatidic acid (2carbaLPA) on the phosphorylation of the extracellular signal-regulated kinase (ERK) protein. HeLa cells were preincubated with 10 µM Ki16425 for 30 min at 37 °C and then incubated with 10 µM 2carbaLPA, lysophosphatidic acid (LPA) 18:1, or vehicle for 5 min at 37 °C. Protein levels of phosphorylated ERK, total ERK, and α-tubulin were determined by western blot analysis. The full-length blots are shown in the Supplementary Fig. S2.
HeLa cells were obtained from RIKEN RBC Cell Bank (Tsukuba, Japan). […] Cells were harvested using 0.125 M Tris–HCl (pH 6.8) supplemented with 4% sodium dodecyl sulphate (SDS), 20% glycerol, 10% 2-mercaptoethanol, and 0.01% bromophenol blue. Proteins were separated by SDS–polyacrylamide gel electrophoresis, and the proteins were transferred onto an Immobilon-P Transfer Membrane (Millipore, Burlington, MA, USA). The membrane was incubated with primary antibodies: anti-phospho-ERK (pERK), anti-ERK, and anti-tubulin (all at 1:1,000 dilution, Cell Signaling Technology, Danvers, MA, USA). Next, after washing, the membrane was treated with horseradish peroxidase-conjugated anti-rabbit IgG (1:1000 dilution; Cell Signaling Technology). Immunodetection was performed using an enhanced chemiluminescence system (EzWestLumi plus, ATTO Corporation, Tokyo, Japan) and ImageQuant LAS 4000 (GE healthcare, Buckinghamshire, UK).

hLPA1 = molecular target: T1, hLPA1 (Homo sapiens, UniProt Q92633); experiment: TGFα-shedding assay, LPA1; format: cell-based; details: 293A cells, AP-TGFα release
T1 construct: expressed in transfected cells; host or cells: 293A cells
Procedure: Figure 4 Agonistic activity of 2-carba-lysophosphatidic acid (2carbaLPA) and cyclic phosphatidic acid (cPA) analogues toward six lysophosphatidic acid (LPA) receptors. 293A cells expressing LPA receptors were stimulated with the indicated concentration of LPA, 2carbaLPA, and cPA analogues. Receptor-specific alkaline phosphatase-tagged transforming growth factor-α release was calculated by subtracting the responses in the empty vector-transfected cells from those in the receptor-expressing cells. Data are represented as standard error of the mean of three independent replicates.
293A cells (Life Technologies, Tokyo, Japan) were cultured in DMEM (Nissui Pharmaceutical, Tokyo, Japan) supplemented with 10% foetal calf serum (Gibco, Waltham, MA, USA) in an incubator at 37 °C and 5% CO2. This assay was conducted according to a modified version of a method described previously. To improve signal detection, cells for the analysis of LPA1, LPA2, LPA4, and LPA5 were transfected with Gα-chimeric proteins, whereas those for LPA4, LPA5, LPA6 analysis were treated with the LPA1–3 antagonist Ki16425. The cells were co-transfected with vectors-expressing human LPA1–6, alkaline phosphatase-tagged TGFα (AP-TGFα). As negative controls, cells transfected with an empty vector instead of the receptor-expressing vector were used. After 24 h, the cells were resuspended in Hank’s balanced salt solution (HBSS), seeded in 96-well plates, and stimulated with cPA analogues administered at tenfold concentration of the final concentration. The cPA analogues were diluted with HBSS, 0.01% protease and fatty acid-free BSA (SERVA Electrophoresis GmbH, Heidelberg, Germany). Cells for LPA4, LPA5, and LPA6 analysis were treated with Ki16425 (final concentration: 10 μM), 5 min before treatment with the cPA analogues. After incubation for 1 h at 37 °C, 80 µL of the supernatant was transferred to fresh 96-well plates. An equal volume of 1 mM p-NPP solution [120 mM Tris–HCl (pH 9.5), 40 mM NaCl, and 10 mM MgCl2] was added to both the supernatant and the cells. Alkaline phosphatase activity was calculated by measuring absorbance at 405 nm using the Cytation 3 plate reader (BioTek, Winooski, VT, USA).

[2] = cPA analogue stability in the 293A cell medium; format: in vitro ADME; details: 10 µM, 1 h, 37 °C, 293A (HEK) cell medium
Procedure: Supplementary Figure S3. Cyclic phosphatidic acid (cPA) analogue stability in the HEK cell medium. Each cPA analogue (final concentration: 10 µM) was incubated with the HEK cell medium for 1 h at 37 °C. The remaining cPA analogue was quantified using liquid chromatography with tandem mass spectrometry (LC-QqQ) and calculated based on the percentage (%) ratio of the final concentration after incubation to the initial concentration. Data are represented as mean ± standard deviation (n = 3 samples).
293A cells were prepared in Hank’s balanced salt solution (HBSS) in 96-well plates. […] After incubation for 1 h at 37 ℃, 80 µL of the supernatant was collected and mixed with 320 µL of acidic methanol, including LPA 17:0 and cPA 17:0 (final concentration: 0.2 µM each; Avanti Polar Lipids, Alabaster, AL, USA).

T1 sequence (Q92633 whole entry): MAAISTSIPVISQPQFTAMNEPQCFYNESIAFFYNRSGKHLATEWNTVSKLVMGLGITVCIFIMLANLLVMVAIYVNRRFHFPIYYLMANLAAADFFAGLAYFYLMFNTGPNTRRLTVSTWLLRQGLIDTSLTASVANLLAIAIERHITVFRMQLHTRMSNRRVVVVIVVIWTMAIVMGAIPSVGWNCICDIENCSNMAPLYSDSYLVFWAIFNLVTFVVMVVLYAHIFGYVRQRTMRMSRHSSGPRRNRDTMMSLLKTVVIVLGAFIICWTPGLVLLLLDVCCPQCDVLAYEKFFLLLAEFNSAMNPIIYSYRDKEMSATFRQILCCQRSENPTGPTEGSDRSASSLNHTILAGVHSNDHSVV

Row | Structure (SMILES) | Effect on 2carbaLPA-induced ERK activation [1] | EC50 (hLPA1; 1 h) [nM] | Emax (hLPA1; read-out: Emax ± SEM hLPA1 (converted)) [%] | Compound remaining after incubation [2]
1 | Cc1noc(-c2ccc(CSCCC(=O)O)cc2)c1NC(=O)OC(C)c1ccccc1Cl (stereo not shown) [Ki16425] | inhibited | – | – | –
2 | CCCCCCCCC=CCCCCCCCC(=O)OCC(O)COP(=O)(O)O (stereo not shown) [LPA 18:1, 1-Oleoyl-LPA] | – | 11.4 | 26.9 | approximately 70%
